Test results: US20230346884A1, “Molecular Targets for Modulation of Dissociative and Associative States” (The Board of Trustees of the Leland Stanford Junior …, priority 2020, published 2023)
Entries after “also recorded” stand apart in the source; their conditions may differ.

Assays:
[1] = system: retrosplenial cortex (RSP); assay: Widefield (pan-cortical) imaging of cortical activity in GCaMP6s mice; conditions: widefield imaging; i.p.; ketamine 50 mg/kg subanesthetic dose; other drugs at doses of b234
Protocol: (2 mg/kg), lidocaine (topical), LSD ((+)-Lysergic acid diethylamide (+)-tartrate (2:1), 0.3 mg/kg), and diazepam (2 mg/kg). […] For anti-depressant effects, human doses are typically 0.3-1 mg/kg, and in mouse 3-10 mg/kg.
As described^8, mice were anesthetized with isoflurane, the scalp was removed, the skull cleaned and dried, and a custom head-plate was cemented to contacts over the cerebellum and in front of the olfactory bulb. The skull was then covered in a thin layer of cyanoacrylate glue (Apollo 2000, Cyberbond), clear dental acrylic (Ortho-Jet, Lang Dental), and clear nail polish (Electron Microscopy Services). […] (0.1 mg/kg) was injected subcutaneously for pain management. […] Imaging was performed on a custom-built fluorescence microscope designed for high light collection efficiency and large field of view. […] Alternating 410 nm and 488 nm illumination for non-Ca^2+ dependent artifact removal was controlled using a microcontroller (Arduino) slaved to the frame output trigger of the camera.
Analysis was performed using custom MATLAB (MathWorks) scripts. Widefield imaging videos were registered to a 2D top-projection atlas generated from the annotated Allen Brain Atlas volume, version CCFv2, in MATLAB (MathWorks), using an affine transformation computed from four manually selected control points. Each video was DF/F normalized, using the median for each pixel over the entire time series as F. The 410 nm channel was then temporally smoothed using a moving average (width=400 ms). The smoothed 410 nm DF/F signal for each pixel was regressed onto the 488 nm DF/F signal for the corresponding pixel, and the regression coefficients were used to scale the 410 nm channel to the 488 nm channel. This scaled 410 nm DF/F signal was then subtracted from the 488 nm DF/F signal to produce a normalized signal for each pixel. For quantification, activity traces were extracted from points centered in five cortical regions (visual, somatosensory, parietal, motor, retrosplenial) on the left hemisphere of the brain. The video data was Gaussian smoothed spatially (radius=2 pixels). Similarly, for fiber photometry recordings, the 410 nm signal was regressed onto the 488 nm signal, the 410 nm signal was scaled by the regression coefficients, and then subtracted from the 488 nm signal.
Each trace (corresponding to either a fiber photometry signal, a cellular two-photon signal, a widefield regional centroid, a widefield pixel, an sEEG trace, or a smoothed spike rate Neuropixels trace) was z-scored, and the power spectral density (PSD) was then estimated using Welch's method (pwelch( ) in Matlab), with a window size of 10*fs (15*fs for human sEEG) where fs is the sampling rate of the signal. The average band power within a specified band (i.e. 1-3 Hz) was then computed by integrating the PSD estimate (bandpower in Matlab). For displaying the traces of individual cells, traces were each zscored by subtracting the mean value of the trace (across the whole recorded time window) and dividing by the standard deviation of the trace. Unless otherwise indicated, the PSD was computed across the time window from minutes 10 to 11 post-injection.

mice [2] = assay: Open field test; assay type: in vivo, mouse; conditions: 5 min; vs saline; doses of b234
Source text: Open Field Test: Mice were placed in an evenly illuminated 50 cm×50 cm open field test box. Mouse position was captured using a webcam and Viewer software (Biobserve).

mice [3] = assay: Hot plate test; conditions: for Dissociation-like behavior: disconnection between sensory-detection and affective responses: other drug classes, doses of b234
Protocol: Hot Plate Test: Mice were placed on the hot plate (Bioseb), which was set to 55° C. and surrounded by a clear circular perimeter. Mouse activity was recorded using two cameras from different angles. The experiment ended when the mouse jumped to escape or 90 seconds had elapsed. Care was taken to clean and dry the hot plate apparatus between animals. For optogenetic experiments, mice were connected to patch cords and then returned to a holding cage. Illumination began 30 seconds before mice were placed on the hot plate.

mice [4] = assay: Tail suspension test; assay type: in vivo, mouse; conditions: PCP 5 mg/kg
Protocol: Tail Suspension Test: Mouse activity was recorded using a 60 Hz web camera. Struggling activity was quantified for minutes 2-10. […] Illumination began 30 seconds before tails were secured with tape and suspended from the beam. Mice were excluded if they climbed on their own tails.

mice [5] = assay: Resident-intruder social interaction assay; assay type: in vivo, mouse; conditions: PCP 5 mg/kg
Protocol: Social Interaction Assay: Resident-intruder social interaction was recorded for two minutes. Interactions were defined as close physical proximity behaviors, including sniffing, touching, and following. […] Illumination began 30 seconds before the same-sex intruder mouse was introduced.

| Compound | Cortical activity pattern: 1-3 Hz oscillation localized to retrosplenial cortex (RSP) [1] | Open-field locomotion velocity (mice [2]) | Dissociation-like behavior: disconnection between sensory-detection and affective responses (mice [3]) | Longer-timescale escape behavior (mice [4]) | Social behavior (mice [5]) | Responsivity to salient stimuli (time-to-jump, rearing/socialization) (mice [3]; LSD 0.3 mg/kg) |
| --- | --- | --- | --- | --- | --- | --- |
| C[C@]12N[C@H](Cc3ccccc31)c1ccccc12 [MK-801] | induced the RSP-localized oscillation |  |  |  |  |  |
| CC12CC3CC(C)(C1)CC(N)(C3)C2 [Memantine, memantine] | did not elicit oscillation |  |  |  |  |  |
| c1ccc(C2(N3CCCCC3)CCCCC2)cc1 [PCP, phencyclidine] | induced the RSP-localized oscillation | locomotion velocity was unchanged | recapitulated ketamine's behavioral disconnection between sensory-detection and affective responses in the hot-plate test | inhibited longer-timescale escape and social behaviors | inhibited longer-timescale escape and social behaviors |  |
| Cc1cccc([C@H](C)c2cnc[nH]2)c1C [dexmedetomidine] | elicited waves of cortical activity without RSP restriction |  |  |  |  |  |
| CN1C(=O)CN=C(c2ccccc2)c2cc(Cl)ccc21 [diazepam] | Neither the GABAergic sedative diazepam nor the centrally-acting opioid-analgesic buprenorphine elicited the rhythm | decreased velocity | did not recapitulate dissociative-like behavior |  |  |  |
| CC(C)c1cccc(C(C)C)c1O [propofol] | elicited waves of cortical activity without RSP restriction |  |  |  |  |  |
| (+)-Lysergic acid diethylamide (+)-tartrate (2:1) [LSD] | did not elicit oscillation | reducing locomotion in the stimulus-poor open-field; also recorded: decreased velocity | disrupted neither sensory-detection nor affective responses |  |  | tended to increase responsivity to salient stimuli (decreased time-to-jump, increased rearing/socialization) |
